The target in experiment [1] is T1, Genome polyprotein (dengue virus type 2, UniProt P29990). The class given is functional, Thailand/16681/1984.
The target in experiment [2] is T1, Genome polyprotein. The class given is functional, Thailand/16681/1984. The source holds these as a separate data set.

The results in this text go back to ChEMBL document CHEMBL5604063, “ASAP - DENV-2 NS2B-NS3 protease fluorescence dose response” (2024).

Structures are written as SMILES. Values joined by “and” are separate entries in the source; they are usually repeats but may differ in a detail not shown here. Equal entries are not always repeated.

T1 sequence (P29990 1346-1475 limits assumed): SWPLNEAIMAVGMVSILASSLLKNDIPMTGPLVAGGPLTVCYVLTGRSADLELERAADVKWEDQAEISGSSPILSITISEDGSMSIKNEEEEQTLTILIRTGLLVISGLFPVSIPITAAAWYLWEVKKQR
T1 sequence (P29990 1476-2093 limits assumed): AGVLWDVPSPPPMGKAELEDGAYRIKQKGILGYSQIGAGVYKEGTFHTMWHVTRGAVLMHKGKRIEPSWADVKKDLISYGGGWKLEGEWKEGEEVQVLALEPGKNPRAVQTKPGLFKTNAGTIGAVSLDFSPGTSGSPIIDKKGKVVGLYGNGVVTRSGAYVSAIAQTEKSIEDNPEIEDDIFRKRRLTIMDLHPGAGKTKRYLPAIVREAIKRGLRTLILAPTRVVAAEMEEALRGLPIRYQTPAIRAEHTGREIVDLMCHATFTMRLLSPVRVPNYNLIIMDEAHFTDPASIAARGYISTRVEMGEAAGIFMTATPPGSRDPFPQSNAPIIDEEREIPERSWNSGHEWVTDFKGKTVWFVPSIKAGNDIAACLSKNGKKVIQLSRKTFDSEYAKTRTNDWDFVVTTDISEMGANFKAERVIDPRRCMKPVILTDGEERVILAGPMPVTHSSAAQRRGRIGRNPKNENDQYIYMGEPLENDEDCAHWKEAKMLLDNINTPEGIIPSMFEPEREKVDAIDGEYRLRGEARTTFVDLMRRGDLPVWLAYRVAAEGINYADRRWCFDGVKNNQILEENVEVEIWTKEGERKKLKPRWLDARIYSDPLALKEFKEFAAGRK

The term IC50 denotes the concentration at which inhibition is half-maximal. Lower therefore signals inhibition by little substance. As to `O=C1C[C@H]2[C@H](CCCN2C(=O)Nc2ccc3c(c2)CNC3)N1`, the IC50 against Genome polyprotein [1] is over 99.5 µM; against Genome polyprotein [2], 75.5 µM and 46.1 µM and > 100 µM (2×).
In the case of `O=C(O)CCc1ccc(NC(=O)c2cc(Cl)cc(NC(=O)OCc3ccccc3)c2)cc1`, the IC50 against Genome polyprotein [1] was 42.8 µM; against Genome polyprotein [2], 17.7 µM.
For the compound `NCc1cccc(NC(=O)[C@@H]2CCC[C@]3(CCNC3=O)C2)c1`, the IC50 against Genome polyprotein [1] is over 99.5 µM; against Genome polyprotein [2], over 100 µM.
For the compound `Cc1c(C(=O)Nc2cc(C3CCOCC3)ccn2)cc(C2CC2)n1C`, the IC50 against Genome polyprotein [1] is over 99.5 µM; on Genome polyprotein [2], over 100 µM.
Taken in the same sequence, the figures for `c1ccc(COc2ccc3c(CN4CCC(c5cscn5)CC4)c[nH]c3c2)cc1` were over 99.5 µM and over 100 µM.
As to `O=C1Cc2ccc(NC(=O)c3cc(F)cc4[nH]ncc34)cc2N1`, the figures for the IC50 against Genome polyprotein [1] and against Genome polyprotein [2] were over 99.5 µM and over 100 µM, respectively.
In the same order, the values of `C=CC[C@H]1NCc2cc(N[C@H](C(=O)NCC(F)F)c3cc(Cl)cc(C4CC4)c3)ccc21` are over 99.5 µM and over 100 µM.
Taken in the same sequence, the figures for `Cc1c(C(=O)Nc2ccc(CN)cc2)cc(C2CC2)n1C` were over 99.5 µM and over 100 µM.
As to `CCN1CC[C@H](COc2cccc([C@H](NC(=O)OCc3ccccc3)C(=O)Nc3cccc(CN)c3)c2)C1`, the figures for the half-inhibitory concentration (IC50) against Genome polyprotein [1] and against Genome polyprotein [2] were over 99.5 µM and over 100 µM, respectively.
In the case of `CN1C(=O)[C@H](c2cc(Cl)cc(NC(=O)OCc3ccccc3)c2)N(c2cccc(-c3nn[nH]n3)c2)C1=O`, the values for the IC50 on Genome polyprotein [1] and at Genome polyprotein [2] were 21.8 µM and 19 µM, respectively.
In the same order, the values of `Cn1nc([C@H](C#N)Nc2cccc([C@H]3CCOC3)c2)cc1C1CC1` are over 99.5 µM and over 100 µM.
Taken in the same sequence, the figures for `Cc1ccc(NC(=O)c2cc(Cl)cc3[nH]ncc23)cc1N` were over 99.5 µM and over 100 µM.
Regarding `Cc1nccn1CCOc1cccc([C@H](NC(=O)OCc2ccccc2)C(=O)Nc2cccc(CN)c2)c1`, the IC50 was over 99.5 µM at Genome polyprotein [1] and over 100 µM at Genome polyprotein [2].
In the same order, the values of `O=C(Nc1cc(-c2cccnc2)ccn1)c1cc2n(n1)CCO2` are over 99.5 µM and over 100 µM.
In the same order, the values of `Cc1c(C(=O)Nc2cccc(C(=O)NC3CC3)c2)cc(C2CC2)n1C` are over 99.5 µM and over 100 µM.
In the same order, the values of `CCc1[nH]c(-c2ccccc2)cc1C(=O)Nc1cccc(-c2nnn[nH]2)c1` are over 99.5 µM and 33.1 µM.
As for `CCOCCNC(=O)[C@H](Nc1ccc2c(c1)CNC2)c1cc(Cl)cc2[nH]ncc12`, the IC50 was over 99.5 µM against Genome polyprotein [1] and over 100 µM against Genome polyprotein [2].
Taken in the same sequence, the figures for `Cc1ncc2c(n1)CCC[C@H]2NC(=O)c1cccc2c1CC(=O)N2` were over 99.5 µM and over 100 µM.
In the same order, the values of `CCNC(=O)Nc1cc(Cl)cc(C(=O)Nc2cc(C)cc(CN)c2)c1` are over 99.5 µM and over 100 µM.
Taken in the same sequence, the figures for `CC(C)(C#N)CS(=O)(=O)N1CCC([C@H](NC(=O)OCc2ccccc2)C(=O)Nc2cccc(CN)c2)CC1` were over 99.5 µM and over 100 µM.
Take `O=C(O)c1ccc(NC(=O)c2cc(Cl)cc3[nH]ncc23)cc1`: the IC50 is over 99.5 µM on Genome polyprotein [1] and over 100 µM against Genome polyprotein [2].
In the same order, the values of `O=c1[nH]c2cccc(N3CCN(Cc4c[nH]c5ccccc45)CC3)c2o1` are over 99.5 µM and over 100 µM.
For the compound `CC(C)n1cc(C(=O)Nc2cc(-c3cccnc3)ccn2)c2ccccc21`, the IC50 is over 99.5 µM on Genome polyprotein [1] and over 100 µM at Genome polyprotein [2].
Taken in the same sequence, the figures for `CNC(=O)[C@H](Nc1ccccn1)c1cc(Cl)cc(CN)c1` were over 99.5 µM and over 100 µM.
For `NCc1cccc(NC(=O)c2cc(Cl)cc(NC(=O)OCc3ccccc3)c2)c1`, the IC50 against Genome polyprotein [1] is 78.2 µM and 61.5 µM; against Genome polyprotein [2] it was over 100 µM.
As for `N#Cc1cccc(-c2nc3c(C(=O)Nc4cccc(F)c4)cc(Cl)cc3[nH]2)c1`, the IC50 at Genome polyprotein [1] is over 99.5 µM; against Genome polyprotein [2], over 100 µM.
In the same order, the values of `O=C(NCC(F)F)[C@H](Nc1ccc2c(c1)CNC2)c1cc(Cl)cc2[nH]ncc12` are over 99.5 µM and over 100 µM.
Taken in the same sequence, the figures for `NCc1cccc(NC(=O)[C@H](NC(=O)OCc2ccccc2)C2CCN(C(=O)c3ccccc3)CC2)c1` were over 99.5 µM and over 100 µM.
In the same order, the values of `COCCc1ccnc(NC(=O)c2cc(C3CC3)n(C)c2C)c1` are over 99.5 µM and over 100 µM.
Turning to `COc1cc(OC)cc([C@H]2CCN(C(=O)Nc3ccc4c(c3)CNC4)C2)c1`, the IC50 was over 99.5 µM at Genome polyprotein [1] and over 100 µM at Genome polyprotein [2].
As to `O=C1Cc2c(cccc2C(=O)N[C@H]2C[C@@H](c3ncc[nH]3)C2)N1`, the IC50 is over 99.5 µM against Genome polyprotein [1] and over 100 µM against Genome polyprotein [2].
`O=C(Nc1ccc2c(c1)CNC2)c1cnnc2ccccc12`: the IC50 at Genome polyprotein [1] was over 99.5 µM; at Genome polyprotein [2] it was over 100 µM.
Taken in the same sequence, the figures for `NCc1cccc(NC(=O)c2cc(Cl)cc3c2OCC3)c1` were over 99.5 µM and over 100 µM.
As to `CCCn1ncc2c(C(=O)Nc3ccc4c(c3)CNC4)cc(Cl)cc21`, the IC50 at Genome polyprotein [1] was over 99.5 µM; at Genome polyprotein [2], over 100 µM.
As to `C=CC[C@H](Nc1cccc(-c2nn[nH]n2)c1)c1cc(Cl)cc(NC(=O)OCc2ccccc2)c1`, the IC50 on Genome polyprotein [1] was 6.97 µM; on Genome polyprotein [2] it was 6.22 µM and 4.97 µM.
Take `NCc1cccc(NC(=O)c2cc(C3CC3)nn2-c2ccccc2)c1`: the IC50 against Genome polyprotein [1] was over 99.5 µM; at Genome polyprotein [2], over 100 µM.
Turning to `O=C(Nc1cc(Cl)cc(S(=O)(=O)Nc2cccc(-n3nn[nH]c3=O)c2)c1)OCc1ccccc1`, the IC50 is 34.3 µM against Genome polyprotein [1]; 16.1 µM and 14.1 µM on Genome polyprotein [2].
On to `CSc1cc2c(cc1NC(=O)c1cc(F)cc3[nH]ncc13)CNC2`, for which the figures for the IC50 on Genome polyprotein [1] and against Genome polyprotein [2] were 71.1 µM and over 100 µM, respectively.
Taken in the same sequence, the figures for `CC1([C@H]2CCCN(C(=O)Nc3ccc4c(c3)CNC4)C2)CC1` were over 99.5 µM and over 100 µM.
Taken in the same sequence, the figures for `O=C(Nc1ccc2c(c1)CNC2)c1cccc2[nH]c(C(F)(F)F)cc12` were 91.7 µM and over 100 µM.
In the same order, the values of `CC(C)[C@@H]1CC[C@@H](C)C[C@H]1C(=O)Nc1cccc(CN)c1` are over 99.5 µM and over 100 µM.
On to `O=C(Nc1cc(Cl)cc(C(=O)NC[C@@H]2CNCCC2(F)F)c1)OCc1ccccc1`, for which the IC50 against Genome polyprotein [1] is over 99.5 µM; against Genome polyprotein [2] it was over 100 µM.
Turning to `O=C(Nc1ccc2c(c1)CNC2)c1cccc(-c2cnco2)c1`, the half-inhibitory concentration (IC50) at Genome polyprotein [1] is 27.6 µM; on Genome polyprotein [2], 57.7 µM and 70.3 µM.
`O=C(Nc1ccc2c(c1)CNCC2)c1cc(Cl)cc2[nH]ncc12`: the results for the IC50 against Genome polyprotein [1] and on Genome polyprotein [2] were over 99.5 µM and over 100 µM, respectively.
Taken in the same sequence, the figures for `NC[C@]1(F)C[C@@H](NC(=O)c2cc(Cl)cc(NC(=O)OCc3ccccc3)c2)C1` were 66.6 µM and over 100 µM.
In the same order, the values of `O=C(Nc1cc(Cl)cc(C(=O)NC[C@@]23CN[C@H](CCO2)C3)c1)OCc1ccccc1` are over 99.5 µM and over 100 µM.
In the same order, the values of `CCn1ncc(-c2noc3nc(C)cc(C(=O)Nc4cccc(CN)c4)c23)c1C` are over 99.5 µM and over 100 µM.
For `NCc1cccc(NC(=O)c2c(C(F)F)nc3cnccn23)c1`, the concentration for half-maximal inhibition (IC50) against Genome polyprotein [1] is over 99.5 µM; against Genome polyprotein [2], over 100 µM.
In the same order, the values of `NCCc1nsc(NC(=O)c2cc(Cl)cc(NC(=O)OCc3ccccc3)c2)n1` are over 99.5 µM and over 100 µM.
In the same order, the values of `O=C(Nc1ccc(C2CNC2)cc1)c1cc(Cl)cc2[nH]ncc12` are over 99.5 µM and over 100 µM.
In the case of `CNC(=O)c1ccnc(NC(=O)c2cc(C3CC3)n(C)c2C)c1`, the IC50 at Genome polyprotein [1] is over 99.5 µM; on Genome polyprotein [2] it was over 100 µM.
In the same order, the values of `O=C(Nc1cc(Cl)cc(C(=O)N2CCC[C@H]2c2nnn[nH]2)c1)OCc1ccccc1` are over 99.5 µM and over 100 µM.
As for `O=c1ccc(N2CCN(Cc3c[nH]c4ccccc34)CC2)c[nH]1`, the IC50 on Genome polyprotein [1] was over 99.5 µM; on Genome polyprotein [2], over 100 µM.
On to `O=C(Nc1cc(-c2cccnc2)ccn1)c1c[nH]c2ncccc12`, for which the half-maximal inhibitory concentration (IC50) at Genome polyprotein [1] is over 99.5 µM; at Genome polyprotein [2], over 100 µM.
With `Cc1ccc(NC(=O)c2cc(Cl)cc3[nH]ncc23)cc1CN`, the IC50 at Genome polyprotein [1] was over 99.5 µM; at Genome polyprotein [2], over 100 µM.
Taken in the same sequence, the figures for `CN(C)Cc1cc(NC(=O)[C@H](NC(=O)OCc2ccccc2)c2ccc(OCc3ccccc3)cc2)sn1` were over 99.5 µM and over 100 µM.
In the same order, the values of `Cc1[nH]c2c(C(=O)Nc3ccc4c(c3)CNC4)cccc2c1C` are over 99.5 µM and over 100 µM.
Taken in the same sequence, the figures for `CN(C)[C@@H]1CCC[C@@H](C(=O)Nc2cccc(CN)c2)C1` were over 99.5 µM and over 100 µM.
Consider `O=C(Nc1cc(Cl)cc(C(=O)Nc2cccc(-c3cc[nH]n3)c2)c1)OCc1ccccc1`, for which the figures for the half-maximal inhibitory concentration (IC50) on Genome polyprotein [1] and on Genome polyprotein [2] were over 99.5 µM and over 100 µM, respectively.
Turning to `CC(C)(C#N)c1cc(C(=O)Nc2cccc(CN)c2)cc(C(F)(F)F)c1`, the IC50 was over 99.5 µM at Genome polyprotein [1] and over 100 µM against Genome polyprotein [2].
Taken in the same sequence, the figures for `CCCN1C(=O)[C@](C#N)(Nc2ccc3c(c2)CNC3)c2ccccc21` were over 99.5 µM and over 100 µM.
In the same order, the values of `Cc1cc(C(=O)Nc2cccc(CN)c2)c2sc(N)nc2n1` are over 99.5 µM and over 100 µM.
`O=C(Nc1ccc2c(c1)CNC2)c1cccc2[nH]cnc12`: the IC50 at Genome polyprotein [1] was over 99.5 µM; on Genome polyprotein [2] it was over 100 µM.
In the same order, the values of `O=C(Nc1ccc2c(c1)CNC2)c1ccc2c(Br)csc2c1` are 58.6 µM and over 100 µM.
In the same order, the values of `O=C1Cc2c(cccc2C(=O)NCC2(F)CC3(CCOCC3)C2)N1` are over 99.5 µM and over 100 µM.
In the same order, the values of `COc1cc(Br)cc(C(=O)Nc2ccc3c(c2)CNC3)c1` are over 99.5 µM and over 100 µM.
For the compound `O=C(Nc1ccc2c(c1)CNC2)c1cc(F)cc(C2=CCOCC2)c1`, the IC50 is over 49.7 µM on Genome polyprotein [1] and over 100 µM against Genome polyprotein [2].
In the same order, the values of `Cn1cc(-c2cccc([C@@H](NC(=O)OCc3ccccc3)C(=O)Nc3cccc(CN)c3)c2)ccc1=O` are over 99.5 µM and over 100 µM.
